According to US20200308620A1, “PREDICTING TUMOR SPECIFICITY OF TARGETED THERAPEUTICS USING ATOMIC FORCE MICROSCOPY (AFM)” (Children's Medical Center Corporation, priority 2017, published 2020):
Converted amounts (≈) assume the structure as drawn.

Experiments:
[1] = test system: MDA-MB-231 cells; assay: In vitro cytotoxicity (cell viability) assay; format: cell-based, human; settings: MDA-MB-231, Dox concentration, treated 4 hours, grown 48 hours
Experimental: In vitro cytotoxicity of ICAM-Dox-LPs on TNBC cells was evaluated using a cell viability assay. Five thousand cells (MDA-MB-231, MDA-MB-436, and MDA-MB-157) were seeded in each well of a 96 well plate and incubated for 24 hours. Cells were treated with (1) ICAM-LP without Dox; (2) Free Dox; (3) non-specific IgG-Dox-LPs and (4) ICAM-Dox-LPs for 4 hours. Cells were rinsed twice with PBS and grown for 48 hours. Cell viability was determined by a Dojindo cell counting kit using the manufacturer's protocol (Rockville, Md.).

[2] = test system: normal red blood cells; settings: Li et al.; cited from earlier work
[3] = test system: patient-derived NHL B cells; settings: cited from earlier work
[4] = test system: ICAM1 expression on MDA-MB-231 cell surface; assay: Flow cytometric analysis of ICAM1 surface expression pre- and post-MCD treatment; format: cell-based, human; settings: MDA-MB-231, pre- and post-MCD treatment
Excerpt: In addition to the overexpression level, the organization of antigens on the cell membrane is another key factor driving differences in antibody-antigen binding behavior^11. AFM-detected adhesive events were also used to spatially map the binding forces on MDA-MB-231 (FIG. 2E) and MCF10A (FIG. 2F) cell surface. […] These “hot-spots” are predicted to be the primary binding sites for ICAM1 antibody-directed nanomedicine due to the high binding forces. ICAM1 molecules may be enriched in membrane lipid rafts of MDA-MB-231 cells to facilitate functional signaling^22. […] In order to determine whether ICAM1 adhesion forces are dependent on the organization of ICAM1 molecules in lipid rafts on the cell membrane, both MDA-MB-231 and MCF10A cells were treated with methyl-beta-cyclodextrin (MCD), a cholesterol-depleting drug that disrupts lipid rafts, and then the average binding force was re-measured. […]
10^6 cells were collected and rinsed twice through suspension-spin cycles. […] Cells were rinsed with 1% BSA in PBS three times, resuspended in PBS, and evaluated by a BD FACSCalibur flow cytometer (BD Biosciences). Quantification of cell surface antigen was determined with reference to Quantum Simply Cellular microbeads, using the protocol provided by the manufacturer.

## COc1cccc2c1C(=O)c1c(O)c3c(c(O)c1C2=O)C[C@@](O)(C(=O)CO)C[C@@H]3O[C@H]1C[C@H](N)[C@H](O)[C@H](C)O1 [free Dox, doxorubicin]
[1]
  IC50 (cytotoxicity): 7.4 µg/mL (≈ 13.6 µM)

## Rituximab: FDA-approved CD20 antibody for Non-Hodgkin's Lymphoma treatment
[2]
  binding force: 21±19 pN
[3]; NHL B cells minus normal red blood cells
  binding force difference (NHL B cells minus normal red blood cells): 33 pN
[3]; patient-derived NHL B cells, Li et al.
  binding force: 54±34 pN

## methyl-beta-cyclodextrin [MCD]
[4]
  effect on average ICAM1 expression on cell surface: did not affect
